From patent US20240366586A1, “METHODS AND AGENTS FOR MODULATING THE IMMUNE RESPONSE” (The Regents of the University of California, priority 2021, published 2024)

What was measured:
lichen planus = test: Treatment example: patient with lichen planus; assay type: in vivo, human; conditions: combination with crisaborole, both administered topically
Protocol: A patient with lichen planus is treated with a combination of N-(2-furylmethyl)-N-[(6-methoxy-2-oxo-1H-quinolin-3-yl)methyl]-4-methyl-benzamide (Compound I-1) and crisaborole, both administered topically.

psoriasis = test: Treatment example: patient with psoriasis; assay type: in vivo, human; conditions: topical formulation
Protocol: A patient with psoriasis is treated with a topical formulation of N-(2-furylmethyl)-N-[(6-methoxy-2-oxo-1H-quinolin-3-yl)methyl]-4-methyl-benzamide (Compound I-1).

chronic eczema = test: Treatment example: patient with chronic eczema; assay type: in vivo, human; conditions: topical formulation
Il12b [1] = test: RNA-Seq / ATAC-Seq of lipopolysaccharide-induced genes in treated macrophages; assay type: cell-based; conditions: for rank of Il12b among the most strongly inhibited lipopolysaccharide-induced genes: genes with RPKM>4 and FC>10, ranked by fold change (Max RPKM with/without compound)
Source text: Our screening experiment identified as compounds that […]. Using ATAC-Seq and RNA-Seq analyses, we confirmed that the screen indeed identified hits that work by affecting chromatin, and confirmed that β adrenergic agonists, (and in particular β2 adrenergic agonists) are indeed exquisitely selective inhibitors of Il12b gene expression.
(§1) The inhibition of Il12b by β agonists occurs upon stimulation of macrophages with other inflammatory stimuli, including CpG DNA, double stranded RNA, and imiquimod. We confirmed that the cAMP/PKA pathway, but not the exchange factor directly activated by cAMP (EPAC) pathway, was largely responsible for mediating the Il12b suppression by 0-agonists.
FIG. 7B depicts a fold change box plot in samples treated with UK17 (3-fluoro-N′-[(5-nitro-2-thienyl)methylene]benzohydrazide (CID #6895129)), classifying lipopolysaccharide-induced genes by gene-regulation cluster as previously described in Tong A. et al., A Stringent Systems Approach Uncovers Gene-Specific Mechanisms Regulating Inflammation, Cell 165 165-179 (2016). Box plots indicate the distribution of fold change values for each cluster. Red lines are drawn at 1 and −1, indicating a 2-fold up or down-regulation of genes. Il12b is labeled in red.

Il12b [2] = test: Dual-fluorescence reporter macrophage cell line screen, lipopolysaccharide-stimulated: chromatinized Il12b-eGFP versus minimal Il12b-DsRed reporter; assay type: cell-based; conditions: lipopolysaccharide-stimulated dual-fluorescence reporter macrophage cell line
Source text: We hypothesized that molecules that inhibit the “chromatinized” Il12b reporter but not the “minimal” Il12b reporter would offer a greater degree of Il12b inhibition selectivity.
We generated a dual-fluorescence reporter macrophage cell line having both a [Il12b]-[eGFP] chromatin-based construct and a [Il12b]-[DSred] plasmid vector. FIG. 3. We then stimulated an […] response in the cell line using lipopolysaccharide, an activator of Il12b expression, and tested a library of over 60,000 known and unknown (i.e., undescribed in the literature) small-molecule compounds.
Additional compounds in Formulas (I)-(IV) were screened following the same procedure as described above, with eGFP fluorescence as a readout for inhibition of IL12b.

vitiligo = test: Treatment example: patient with vitiligo; assay type: in vivo, human; conditions: topical formulation
Protocol: A patient with vitiligo is treated with a topical formulation of 11-(5-hydroxy-2-nitrobenzyl)-7,11-diazatricyclo[7.3.1.0˜2,7˜]trideca-2,4-dien-6-one (Compound III-1).

alopecia = test: Treatment example: patient with alopecia; assay type: in vivo, human; conditions: topical formulation also comprising apremilast
Behçet's disease = test: Treatment example: patient with Behçet's disease; assay type: in vivo, human; conditions: topical formulation
[3] = tested on: imiquimod-induced psoriasiform dermatitis; test: Imiquimod-induced psoriasiform dermatitis model, PASI clinical scoring; assay type: in vivo; conditions: WT mice, topical imiquimod, daily intraperitoneal injection, vs saline/PBS
Source text: FIG. 16 depicts histology of WT mice or b1/b2 KO mice 5 days after topically applying imiquimod to their skin. Histology confirms greater thickening and scale of the skin in b1/b2 KO mice.
FIG. 19 depicts WT mice given intraperitoneal injection of the b2 selective adrenergic agonist clenbuterol or vehicle control (saline) daily in mice given topical imiquimod to induce psoriasiform dermatitis.
FIG. 20 depicts the PASI clinical scoring PBS-treated WT mice versus clenbuterol-treated WT mice.

Il12b [4] = test: Il12b expression in human macrophages treated with PGE2 (RNA-Seq, RPKM vs DMSO); assay type: cell-based
Source text: as §1
FIG. 10 depicts a heatmap of percent expression of RPKMs as a percent of the maximum RPKM within the DMSO sample for genes with RPKMs>3 and FC>10 in at least one DMSO timepoint. The heatmap represents that for the averaged samples for each gene between Donor 0 IL34 and Donor 0 MCSF. In the left heatmap, red indicates percent expression equal to or higher than 100%. DMSO and PGE2 samples are indicated as such for timepoints 0 hr, 1 hr, 2 hr, and 6 hr. […] Here, red represents a positive difference equal to or over 100%, indicating induction, and blue representing a negative difference equal to or less than −100%, indicating inhibition. (n=2).
FIG. 11 depicts log 2 of the fold change of RPKMS after PGE2-treatment and those after DMSO treatment are shown in this scatter plot for genes with RPKMs>3 and FC>10 in at least on DMSO timepoint and this graph represents the 6-hour timepoint. […]

COc1ccc2[nH]c(=O)c(CN(Cc3ccco3)C(=O)c3ccc(C)cc3)cc2c1 [Compound I-1, N-(2-furylmethyl)-N-[(6-methoxy-2-oxo-1H-quinolin-3-yl)methyl]-4-methyl-benzamide]
clinical outcome (lichen planus): Resolution of symptoms
clinical outcome (psoriasis): Resolution of symptoms

O=C(NN=Cc1ccc([N+](=O)[O-])s1)c1cccc(F)c1 [II-1, 3-fluoro-N′-[(5-nitro-2-thienyl)methylene]benzohydrazide]
clinical outcome (chronic eczema): Resolution of symptoms
rank of Il12b among the most strongly inhibited lipopolysaccharide-induced genes (Il12b [1]): ≤ 20
selective inhibition of the chromatinized Il12b reporter (eGFP) but not the minimal reporter (DsRed) (Il12b [2]): selective inhibitors of chromatinized Il12b
selective inhibition of the chromatinized Il12b reporter (eGFP) but not the minimal reporter (DsRed) (Il12b [2]; listed as UK17): selective for inhibition of chromatinized Il12b

O=c1cccc2n1CC1CC2CN(Cc2cc(O)ccc2[N+](=O)[O-])C1 (stereo not drawn) [III-1, 11-(5-hydroxy-2-nitrobenzyl)-7,11-diazatricyclo[7.3.1.0˜2,7˜]trideca-2,4-dien-6-one]
clinical outcome (vitiligo): Resolution of vitiligo
selective inhibition of the chromatinized Il12b reporter (eGFP) but not the minimal reporter (DsRed) (Il12b [2]): selective inhibitors of chromatinized Il12b

COc1ccc(Br)cc1/C=C/C(=O)c1ccc(OC)c(OC)c1 [IV-1, 3-(5-bromo-2-methoxyphenyl)-1-(3,4-dimethoxyphenyl)-2-propen-1-one]
clinical outcome (alopecia): Resolution of alopecia
rank of Il12b among the most strongly inhibited lipopolysaccharide-induced genes (Il12b [1]): ≤ 20
clinical outcome (Behçet's disease): Resolution of disease
selective inhibition of the chromatinized Il12b reporter (eGFP) but not the minimal reporter (DsRed) (Il12b [2]): selective inhibitors of chromatinized Il12b

CC(C)(C)NCC(O)c1cc(Cl)c(N)c(Cl)c1 (stereo not drawn) [clenbuterol]
PASI clinical score [3]: reduction in score

CCCCC[C@H](O)/C=C/[C@H]1[C@H](O)CC(=O)[C@@H]1C/C=C\CCCC(=O)O [prostaglandin E2, reference compound]
selective inhibition of Il12b in human macrophages (Il12b [4]): exquisitely selective inhibitor of Il12b
selective inhibition of Il12b gene expression (Il12b [1]; RNA-Seq and ATAC-Seq analyses, macrophages): selectively inhibit IL12b expression
